According to patent US20030203410A1, “Gestational agents which modulate cell proliferation” (priority 1999, published 2003):
Converted amounts (≈) assume the structure as drawn.

Legend:
[1] = tested on: Herpes Simplex Type I; experiment: Inhibition of viral cytopathic effect (visual CPE and neutral red), HSV-1 in MRC-5 cells; format: cell-based, type 1 herpes (HSV-1); details: for EC50: EXPT EV/H1C2
[2] = in vitro; details: human
[3] = in vitro; details: African green monkey
[4] = tested on: Vaccinia Virus; experiment: microbe, parasite or virus in culture; format: cell-based; details: for EC50: Orthopoxvirus vaccinia, EXPT EV/VC2
[5] = in vitro; details: African green monkey; remark: listed apart in the source
[6] = in vitro; details: African green monkey; remark: listed apart in the source
[7] = tested on: Venezuelan Equine Encephalitis; experiment: microbe, parasite or virus in culture; format: cell-based, Venezuelan equine encephalitis virus; details: for EC50: Venezuelan equine encephalitis virus, EXPT EV/VEC4
[8] = tested on: San Angelo Virus; experiment: microbe, parasite or virus in culture; format: cell-based
[9] = in vitro; details: African green monkey; remark: listed apart in the source
[10] = tested on: African green monkey kidney (Vero) cells
[11] = tested on: Simian Rotavirus; experiment: Inhibition of viral cytopathic effect (visual CPE and neutral red), simian rotavirus in MA104 cells; format: cell-based; details: for EC50: Rotavirus A, EXPT EV/RtC2

For `Nc1nc2c(ncn2COCCO)c(=O)[nH]1` [Acyclovir, acyclovir], which EC50 ([1]; Human alphaherpesvirus 1, MRC5, neutral red assay) is on record?
The EC50 was 0.4 µg/mL (≈ 1.78 µM).

What about the EC50 ([1]; Human alphaherpesvirus 1, MRC5, visual CPE) of the same molecule?
The EC50 was 0.6 µg/mL (≈ 2.66 µM).

What about the COMMENT ([1]; neutral red assay) of the same molecule?
Its COMMENT is “Excellent activity”.

And the COMMENT ([1]; visual)?
Its COMMENT is “Excellent activity”.

What about the CC50 [2] of the same molecule?
The CC50 was > 100 µg/mL.

Which results are given for `Nc1ccn(C[C@@H](CO)OCP(=O)(O)O)c(=O)n1` [HPMPC, cidofovir]?
CC50 [3]: > 100 µg/mL; EC50 ([4]; CV-1, neutral red assay): 1.7 µg/mL (≈ 6.09 µM); EC50 ([4]; CV-1, visual CPE): 5.4 µg/mL (≈ 19.3 µM); COMMENT ([4]; neutral red assay): Excellent activity.; COMMENT ([4]; visual): Very good activity.

Which results are given for `NC(=O)c1ncn([C@@H]2O[C@H](CO)[C@@H](O)[C@H]2O)n1` [Ribavirin, ribavirin]?
CC50 [5]: 560 µg/mL (≈ 2290 µM); CC50 [6]: > 100 µg/mL; EC50 ([7]; MA104, neutral red assay, neutral red data questionable): > 100 µg/mL; EC50 ([7]; MA104, visual CPE): 7.6 µg/mL (≈ 31.1 µM); COMMENT ([7]; visual): Very good activity.; COMMENT [8]: Very good activity.; EC50 ([8]; San Angelo virus, Vero): 30 µg/mL (≈ 123 µM); CC50 [9]: > 100 µg/mL; CC50 [10]: 530 µg/mL (≈ 2170 µM); EC50 ([11]; MA104, neutral red assay): 56 µg/mL (≈ 229 µM); EC50 ([11]; MA104, visual CPE): 18 µg/mL (≈ 73.7 µM); COMMENT ([11]; neutral red assay): Slight activity.; COMMENT ([11]; visual): Moderate activity.
